Measured values reported in patent US20100152291A1, “PRODUCTION METHOD OF CAPSINOID BY DEHYDRATING CONDENSATION, STABILIZING METHOD OF CAPSINOID, AND CAPSINOID COMPOSITION” (AJINOMOTO CO., INC., priority 2005, published 2010).
Values belong to the compound of their own block, whether it stands above or below them.

Assays:
[1] = Stability of capsinoid containing fatty acid, preserved in hexane at 5° C., purity by HPLC; type: physicochemical
Method: For example, dihydrocapsiate was synthesized using a small excess of fatty acid, and dihydrocapsiate obtained by preparatively separating together with the excess fatty acid remaining in about 2 wt % relative to dihydrocapsiate was analyzed by HPLC.
(§1) The HPLC measurement conditions of capsinoid are as follows. HPLC conditions: column: Inertsil C8 3 u μm (diameter 4.0 mm×100 mm) eluent: A mixed solvent of eluents A, B shown below and a buffer was eluted by gradient elution method. […]
(§2) eluent A: CH3CN:buffer=80:20 eluent B: CH3CN:buffer=0:100 […]
(§3) temperature: room temperature
Capsiate obtained in the same manner as in Example 5, which contained 3.2 wt % of fatty acid, was analyzed by HPLC to find the purity of 97.8 area %. This capsiate was preserved in a hexane solvent at 5° C. for 30 days and analyzed by HPLC.
Dihydrocapsiate obtained in the same manner as in Example 15, which contained 2.0 wt % of fatty acid, was analyzed by HPLC to find 99.2 area %. This dihydrocapsiate was preserved in a hexane solvent at 5° C. for 30 days and analyzed by HPLC.

[2] = Stability of vanillyl decanoate in acetonitrile with or without decanoic acid, purity by HPLC; type: physicochemical
From the text: When ester compound (3) is separated and purified by column chromatography, fatty acid (1) present in excess in the reaction mixture has an Rf value similar to that of ester compound (3); therefore, the separation and purification of ester compound (3) is associated with difficulty. […] For example, when vanillyl decanoate was synthesized from decanoic acid and vanillyl alcohol, separated and purified from decanoic acid by silica gel column chromatography to give pure vanillyl decanoate, which was dissolved in acetonitrile and analyzed by HPLC. As a result, the purity of vanillyl decanoate was 95.6 area %. However, when the sample was reanalyzed 62 hours later, the purity decreased to 82.0 area %. […] Vanillyl decanoate is considered to have become unstable upon separation from decanoic acid. Therefore, fatty acid (1), difficult to be separated from ester compound (3), is preferably left coexisted rather than being separated, from the aspect of stability of ester compound (3).
For example, when 9.1 wt % of decanoic acid was added, in acetonitrile, to pure vanillyl decanoate separated from decanoic acid, the purity of vanillyl decanoate was 97.6 area % even after 19.5 hours and the purity was maintained.
as §1, §2, §3
Vanillyl decanoate was separately synthesized from vanillyl alcohol and decanoic acid, and its stability was examined. Decanoic acid was separated by silica gel column chromatography, and the purified product was dissolved in acetonitrile and analyzed by […]
HPLC to find 95.6 area %. When the sample was reanalyzed 62 hours later, the purity decreased to 82.0 area %, and vanillyl decanoate was confirmed to have been decomposed.
Decanoic acid was separated by silica gel column chromatography, and the purified product, vanillyl decanoate, was dissolved in acetonitrile and analyzed by HPLC 9 hours later to find 90.4 area %. To the acetonitrile solution of the purified product, vanillyl decanoate, was added 9.1 wt % of decanoic acid, and the mixture was analyzed by HPLC 19.5 hours later to find 97.6 area %, showing increase in the purity as compared to the absence of decanoic acid addition. Similarly, 16.7 wt %, 28.7 wt % and 44.8 wt % of decanoic acid was added to vanillyl decanoate to result in higher purities of 98.1 area %, 98.1 area % and 97.9 area % as compared to the absence of decanoic acid addition.

purity by HPLC ([1]; containing 2.0 wt % of fatty acid, preserved in hexane at 5° C. for 30 days): 99.3 area %
time stably preserved without decomposition ([1]; with about 2 wt % excess fatty acid, in hexane at 5° C.): at least 30 days
Structure (SMILES): COc1cc(COC(=O)CCCCCCC(C)C)ccc1O [dihydrocapsiate]

purity by HPLC ([1]; containing 3.2 wt % of fatty acid, before preservation): 97.8 area %
purity by HPLC ([1]; containing 3.2 wt % of fatty acid, preserved in hexane at 5° C. for 30 days): 97.6 area %
Structure (SMILES): COc1cc(COC(=O)CCCC/C=C/C(C)C)ccc1O [capsiate]

purity by HPLC ([2]; acetonitrile solution, 9.1 wt % of decanoic acid added, 19.5 hours later): 97.6 area %
purity by HPLC ([2]; acetonitrile solution, 16.7 wt % of decanoic acid added): 98.1 area %
purity by HPLC ([2]; acetonitrile solution, 28.7 wt % of decanoic acid added): 98.1 area %
purity by HPLC ([2]; acetonitrile solution, 44.8 wt % of decanoic acid added): 97.9 area %
purity by HPLC ([2]; pure product separated from decanoic acid, dissolved in acetonitrile, first analysis): 95.6 area %
purity by HPLC ([2]; pure product separated from decanoic acid, in acetonitrile, reanalyzed 62 hours later): 82.0 area %
purity by HPLC ([2]; purified product without decanoic acid, in acetonitrile, 9 hours later): 90.4 area %
Structure (SMILES): CCCCCCCCCC(=O)OCc1ccc(O)c(OC)c1 [vanillyl decanoate]
